Data: US9730447B2, “Fungicidal amides” (E I DU PONT DE NEMOURS AND COMPANY, priority 2013, dated 2017)

Experiments:
Assay type in all cases: in vivo
Botrytis cinerea = assay: Test A: preventive spray on tomato seedlings, Botrytis cinerea (gray mold), visual disease rating; settings: 100 = 100% disease control, 0 = no control relative to controls, unmarked values
Text: General protocol for preparing test suspensions for Tests A-E: the test compounds were first dissolved in acetone in an amount equal to 3% of the final volume and then suspended at the desired concentration (in ppm) in acetone and purified water (50/50 mix by volume) containing 250 ppm of the surfactant Trem® 014 (polyhydric alcohol esters). The resulting test suspensions were then used in Tests A-E. Compounds were sprayed with either a 40 ppm or 10 ppm (*) test suspension to the point of run-off on the test plants which is the equivalent of a rate of 160 g ai/ha or 40 g ai/ha, respectively.
The test suspension was sprayed to the point of run-off on tomato seedlings. The following day the seedlings were inoculated with a spore suspension of Botrytis cinerea (the causal agent of gray mold on many crops) and incubated in a saturated atmosphere at 20° C. for 48 h, and moved to a growth chamber at 27° C. for 2 days, after which time visual disease ratings were made.
Results for Tests A-E are given in Table A. In the Table, a rating of 100 indicates 100% disease control and a rating of 0 indicates no disease control (relative to the controls). A dash (-) indicates no test results.

[1] = test system: Erysiphe graminis f. sp. tritici; assay: Test E: preventive spray on wheat seedlings, Erysiphe graminis f. sp. tritici (wheat powdery mildew), visual disease rating; settings: 100 = 100% disease control, 0 = no control, unmarked values
In short: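 Wheat seedlings were sprayed to run-off with 40 or 10 ppm suspension (160 or 40 g ai/ha) and dusted with spores the next day. They were then kept 8 days at 20 °C. Disease was rated visually as % control relative to untreated controls (0–100).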

[2] = test system: Puccinia recondite f. sp. tritici; assay: Test D: preventive spray on wheat seedlings, Puccinia recondite f. sp. tritici (wheat leaf rust), visual disease rating; settings: 100 = 100% disease control, 0 = no control, unmarked values
In short: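 Wheat seedlings sprayed to run-off with 40 ppm (160 g ai/ha) or 10 ppm (40 g ai/ha) suspension in acetone/water with 250 ppm surfactant, inoculated next day with leaf rust spores. After 24 h saturated at 20 °C then 6 days at 20 °C, visual rating of disease control (0–100) relative to controls.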

Septoria tritici = assay: Test C: preventive spray on wheat seedlings, Septoria tritici (wheat leaf blotch), visual disease rating; settings: 100 = 100% disease control, 0 = no control, unmarked values
In short: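 Wheat seedlings sprayed to run-off at 40 ppm or 10 ppm (160 or 40 g ai/ha) in acetone/water with surfactant, inoculated with Septoria tritici spores next day. Held 48 h saturated at 24 °C, then 21 days at 20 °C. Visual rating scored as % disease control relative to controls.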

[3] = test system: Stagonospora nodorum (also known as Septoria nodorum); assay: Test B: preventive spray on wheat seedlings, Stagonospora nodorum (wheat glume blotch), visual disease rating; settings: 100 = 100% disease control, 0 = no control, unmarked values
In short: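 Compounds in acetone/water (50/50) with 250 ppm Trem 014 surfactant were sprayed to run-off at 40 ppm (160 g ai/ha) or 10 ppm (40 g ai/ha). Seedlings were inoculated with S. nodorum spores the next day, then held 48 h saturated at 20 °C and 6 days in a growth chamber at 20 °C. Visual rating as % disease control vs untreated.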

SMILES | Test A disease control rating (Botrytis cinerea) [%] | Test E disease control rating [1] [%] | Test D disease control rating [2] [%] | Test C disease control rating (Septoria tritici) [%] | Test B disease control rating [3] [%]
O=C(Nc1ccccc1-c1ccc(-n2cc(-c3cccc(F)c3)cn2)nc1)c1ncccc1C(F)(F)F [compound 27] | 89 | 96 | 98 | 100 | 99
O=C(Nc1ccccc1-c1ccc(-n2cc(-c3cc(F)cc(F)c3)cn2)nc1)c1ncccc1C(F)(F)F [compound 28] | 99 | 96 | 99 | 100 | 99
O=C(Nc1ccccc1-c1ccc(-n2cc(-c3ccccc3F)cn2)nc1)c1ncccc1C(F)(F)F [compound 29] | 77 | 82 | 89 | 100 | 99
O=C(Nc1ccccc1-c1ccc(-n2cc(-c3ccc(F)cc3)cn2)nc1)c1ncccc1C(F)(F)F [compound 30] | 33 | 69 | 89 | 91 | 82
Cn1cc(C(=O)Nc2ccccc2-c2ccc(-n3cc(Br)cn3)nc2)c(C(F)F)n1 [compound 31] | 100 | 99 | 100 | 100 | 100
O=C(Nc1ccccc1-c1ccc(-n2cc(Cl)cn2)nc1)c1ncccc1C(F)(F)F [compound 32] | 99 | 99 | 100 | 100 | 100
O=C(Nc1ccccc1-c1cnc(-n2ccc(C(F)(F)F)n2)c(Cl)c1)c1ccccc1C(F)(F)F [compound 33] | 15 | 99 | 100 | 100 | 60
Cn1cc(C(=O)Nc2ccccc2-c2cnc(-n3ccc(C(F)(F)F)n3)c(Cl)c2)c(C(F)F)n1 [compound 35] | 97 | 100 | 100 | 100 | 100
Cc1cc(-c2ccccc2NC(=O)c2ccccc2C(F)(F)F)cnc1-n1ccc(C(F)(F)F)n1 [compound 36] | 28 | 99 | 100 | 100 | 98
Cc1cc(-c2ccccc2NC(=O)c2ncccc2C(F)(F)F)cnc1-n1ccc(C(F)(F)F)n1 [compound 37] | 95 | 100 | 100 | 100 | 100
Cc1cc(-c2ccccc2NC(=O)c2cn(C)nc2C(F)F)cnc1-n1ccc(C(F)(F)F)n1 [compound 38] | 90 | 100 | 100 | 100 | 100
O=C(Nc1ccccc1-c1ccc(-n2ccc(-c3ccccc3)n2)nc1)c1ncccc1C(F)(F)F [compound 39] | 45 | 89 | 92 | 92 | 0
Cn1cc(C(=O)Nc2ccccc2-c2ccc(-n3ccc(-c4ccccc4)n3)nc2)c(C(F)F)n1 [compound 41] | 99 | 84 | 100 | 100 | 40
O=C(Nc1ccccc1-c1ccc(-n2ccc(-c3ccccc3)n2)nc1)c1ccccc1C(F)(F)F [compound 42] | 40 | 21 | 68 | 87 | 0
Cc1cnn(-c2ccc(-c3ccccc3NC(=O)c3ccccc3C(F)(F)F)cn2)c1 [compound 43] | 94 | 92 | 74 | 98 | 99
Cc1cnn(-c2ccc(-c3ccccc3NC(=O)c3ccccc3C(F)(F)F)cn2)c1 [compound 44] | 40 | 0 | 99 | 62 | 0
Cc1cnn(-c2ccc(-c3ccccc3NC(=O)c3cn(C)nc3C(F)F)cn2)c1 [compound 45] | 99 | 99 | 100 | 100 | 98
Cc1cnn(-c2ccc(-c3ccccc3NC(=O)c3ncccc3Cl)cn2)c1 [compound 46] | 21 | 0 | 97 | 8 | 0
O=C(Nc1ccccc1-c1ccc(-n2cc(Br)cn2)nc1)c1ncccc1Cl [compound 47] | 91 | 0 | 100 | 82 | 0
COc1cc(C(F)(F)F)nn1-c1ccc(-c2ccccc2NC(=O)c2ncccc2C(F)(F)F)cn1 [compound 48] | 0 | 56 | 0 | 73 | 0
Cc1cc(C)n(-c2ccc(-c3ccccc3NC(=O)c3ncccc3C(F)(F)F)cn2)n1 [compound 52] | 36 | 50 | 96 | 99 | 0
O=C(Nc1ccccc1-c1ccc(-n2ccc(-c3ccccc3)n2)nc1)c1ncccc1Cl [compound 53] | 0 | 0 | 55 | 0 | 0
O=C(Nc1ccccc1-c1cnc(-n2ccc(C(F)(F)F)n2)nc1)c1nccnc1Cl [compound 55] | 0 | 0 | 91 | 100 | 0
O=C(Nc1ccccc1-c1ccc(-n2ccc(C(F)(F)F)n2)nn1)c1ccccc1C(F)(F)F [compound 57] | 0 | 0 | 100 | 32 | 0
O=C(Nc1ccccc1-c1cnc(-n2cc(Cl)cn2)c(Cl)c1)c1ccccc1C(F)(F)F [compound 60] | 34 | 99 | 100 | 100 | 0
